From US20030199514A1, “Methods for improving efficacy of treatment with growth hormone secretagogues” (priority 2002, published 2003)

Test system: urinary nitrogen excretion
Assay: Phase I double-blind, placebo-controlled, multiple dose evaluation of test compound in calorically restricted, obese men and women
Type: in vivo, human
Conditions: obese subjects on caloric-restricted diet, 3 mg po tid, 6 mg po tid or 10 mg po qam for seven days
Protocol: Phase I Double-Blind, Placebo-Controlled, Multiple Dose Evaluation of Test Compound in Calorically Restricted, Obese Men and Women
A total of 48 obese subjects, with a negative exercise tolerance test and without significant other medical problems, were recruited for this study and placed on a caloric-restricted diet. Subjects were randomized to either placebo, 3 mg po tid, 6 mg po tid or 10 mg po qam of the test compound, 2-amino-N-[2-(3a-(R)-benzyl-2-methyl-3-oxo-2,3,3a,4,6,7-hexahydro-pyrazolo[4,3-c]pyridin-5-yl)-1-(R)-benzyloxymethyl-2-oxo-ethyl]-isobutyramide, L-tartrate, for a total of seven days.
The primary efficacy outcome variable of this study was urinary nitrogen excretion. Breakdown of protein (protein catabolism) may be measured by urinary nitrogen excretion. The covariates determined in this study included: 1.) gender; 2.) serum total and free testosterone; and 3.) serum total and free estradiol.

CN1N=C2CCN(C(=O)[C@@H](COCc3ccccc3)NC(=O)C(C)(C)N)C[C@@]2(Cc2ccccc2)C1=O.O=C(O)C(O)C(O)C(=O)O [test compound, 2-amino-N-[2-(3a-(R)-benzyl-2-methyl-3-oxo-2,3,3a,4,6,7-hexahydro-pyrazolo[4,3-c]pyridin-5-yl)-1-(R)-benzyloxymethyl-2-oxo-ethyl]-isobutyramide, L-tartrate]
effect on urinary nitrogen (excretion) (men): manifest in men | effect on urinary nitrogen (excretion) (women): modest effects of treatment in women
